Results: the supplement of paper PMC10307832

Legend:
Assay in all cases: relative viability (nuclei count vs DMSO), 5 days (fraction); higher = more cells survive
[1] = compound: CCC1=CN=CN=C1N2CCN(CC2)CC3=NC4=C(N3)C=C(C=C4)C(F)(F)F + Nc1ncn([C@H]2C[C@H](O)[C@@H](CO)O2)c(=O)n1 [Decitabine] (partner 2 µM)
Summary of the method: (§1)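 Lung cancer cell lines in 1536-well plates were dosed by pin tool the day after seeding, either with one drug alone or with a fixed anchor-drug dose plus five library-drug doses (not always all listed) in √10 steps. After 5 days, cells were fixed and their nuclei stained in one step (final 0.05% Triton X-100, 1% formaldehyde, 1 ug/ml Hoechst), then counted on 4× images. Relative viability is the nuclei count in treated wells divided by that in vehicle wells. Values are medians of duplicate plates.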

[2] = compound: CCn1c(-c2nonc2N)nc2cnc(Oc3cccc(NC(=O)c4ccc(OCCN5CCOCC5)cc4)c3)cc21 + CC(C)C[C@H](NC(=O)[C@H](Cc1ccccc1)NC(=O)c1cnccn1)B(O)O [Bortezomib] (partner 0.002 µM)
Summary of the method: as §1

[3] = compound: CCn1c(-c2nonc2N)nc2cnc(Oc3cccc(NC(=O)c4ccc(OCCN5CCOCC5)cc4)c3)cc21 + COc1cc2c(Oc3ccc(NC(=O)C4(C(=O)Nc5ccc(F)cc5)CC4)cc3F)ccnc2cc1OCCCN1CCOCC1 [Foretinib] (partner 0.25 µM)
Summary of the method: as §1

Cell Line | relative viability ([1]; first compound 0.04 µM) | relative viability ([1]; first compound 0.1265 µM) | relative viability ([1]; first compound 0.4 µM) | relative viability ([1]; first compound 1.265 µM) | relative viability ([1]; first compound 4 µM) | relative viability ([2]; first compound 0.04 µM) | relative viability ([2]; first compound 0.1265 µM) | relative viability ([2]; first compound 0.4 µM) | relative viability ([2]; first compound 1.265 µM) | relative viability ([2]; first compound 4 µM) | relative viability ([3]; first compound 0.04 µM) | relative viability ([3]; first compound 0.1265 µM) | relative viability ([3]; first compound 0.4 µM) | relative viability ([3]; first compound 1.265 µM) | relative viability ([3]; first compound 4 µM)
NCI-H650 | 0.313 | 0.306 | 0.328 | 0.271 | 0.287 | 1.14 | 0.631 | 0.349 | 0.295 | 0.374 | 1.12 | 0.774 | 0.531 | 0.366 | 0.438
NCI-H1915 | 0.24 | 0.262 | 0.261 | 0.272 | 0.263 | 1.16 | 0.94 | 0.958 | 0.653 | 0.314 | 1.09 | 1.14 | 1.1 | 1.08 | 1.12
NCI-H1734 | 0.458 | 0.465 | 0.566 | 0.499 | 0.489 | 0.889 | 0.837 | 0.511 | 0.412 | 0.35 | 0.97 | 0.882 | 0.69 | 0.599 | 0.44
NCI-H1993 | 0.563 | 0.62 | 0.621 | 0.522 | 0.51 | 1.09 | 1.16 |  | 0.882 | 1.02 | 0.84 | 0.765 | 0.659 | 0.795 | 0.723
HCC-78 | 0.667 | 0.501 | 0.643 | 0.6 | 0.674 | 0.465 | 0.53 | 0.494 | 0.605 | 0.705 | 0.596 | 0.584 |  | 0.64 | 0.713
NCI-H3122 | 0.387 | 0.459 | 0.418 | 0.452 | 0.351 | 1.05 | 1.01 | 0.93 | 0.691 | 0.738 | 1.06 | 0.969 | 0.935 | 0.972 | 0.832
HOP-62 | 0.185 | 0.199 | 0.214 | 0.249 | 0.193 | 0.875 | 0.829 | 0.816 | 0.756 | 0.212 | 1.12 | 1.22 | 1.02 | 0.864 | 0.789
NCI-H661 | 0.557 | 0.522 | 0.524 | 0.472 | 0.55 | 0.896 | 0.865 | 0.815 | 0.608 | 0.616 | 0.966 | 0.846 | 0.925 | 0.801 | 0.522
BEN | 0.638 | 0.61 | 0.703 | 0.548 | 0.508 | 0.747 | 0.655 | 0.321 | 0.306 | 0.303 | 0.668 | 0.449 | 0.338 | 0.346 | 0.351
ChaGo-K-1 | 0.554 | 0.471 | 0.526 | 0.501 | 0.488 | 1.45 | 0.892 | 0.752 |  | 0.688 | 0.97 | 0.942 | 0.908 | 0.769 | 0.856
NCI-H1755 | 0.759 | 0.693 | 0.729 | 0.72 | 0.759 | 0.97 | 0.781 | 0.649 | 0.533 | 0.512 | 0.907 | 0.957 | 0.916 | 0.619 | 0.645
NCI-H2023 | 0.21 | 0.218 | 0.224 | 0.215 | 0.252 | 1.25 | 0.918 | 0.621 | 0.504 | 0.394 | 0.897 | 0.988 | 1.03 | 0.71 | 0.451
LC-2-ad | 0.929 | 0.816 | 0.792 | 0.774 | 0.768 | 1.1 | 0.936 | 0.756 | 0.448 | 0.281 | 1 | 0.927 | 0.784 | 0.529 | 0.687
NCI-H1666 | 0.746 | 0.733 | 0.699 | 0.65 | 0.719 | 0.785 | 1.02 | 0.65 | 0.459 | 0.385 | 1.1 | 1.11 | 1.2 | 0.767 | 0.442
201T | 0.823 | 0.813 | 0.879 | 0.869 | 0.819 | 1.06 | 1.02 | 1.11 | 1.02 | 1.03 | 1.28 | 1.11 | 1.05 | 0.555 | 0.598
NCI-H2009 | 0.381 | 0.348 | 0.361 | 0.37 | 0.373 | 1.06 | 0.875 | 0.647 | 0.322 | 0.318 | 1.07 | 0.974 | 0.921 | 0.642 | 0.356
NCI-H23 | 0.288 | 0.31 | 0.282 | 0.252 | 0.358 | 1.44 | 1.16 |  | 0.856 | 0.512 | 1.05 | 0.909 | 0.978 | 0.853 | 0.862
LU99A | 0.906 | 0.877 | 0.785 | 0.837 | 0.843 | 1.03 | 0.97 | 0.86 | 0.783 | 0.589 | 0.872 | 0.886 | 0.853 | 0.493 | 0.476
NCI-H1437 | 0.537 | 0.529 | 0.531 | 0.589 | 0.487 | 0.518 | 0.427 | 0.514 | 0.499 | 0.364 | 1.26 | 1.31 | 1.23 | 1.06 | 0.865
EKVX | 0.264 | 0.289 | 0.328 | 0.344 | 0.335 | 1.22 | 1.05 | 0.902 | 0.932 | 1.02 | 0.889 | 0.686 | 0.708 | 0.445 | 0.735
ABC-1 |  |  | 1.04 | 0.84 | 0.887 | 0.483 | 0.302 | 0.262 | 0.256 | 0.285 | 0.804 | 1.29 | 1.15 | 0.802 | 0.417
NCI-H596 | 1 | 1.01 | 0.958 | 0.853 | 1.06 | 0.985 | 0.905 | 0.924 | 0.8 | 0.746 | 0.961 | 0.873 | 0.814 | 0.742 | 0.767
LCLC-97TM1 | 0.24 | 0.205 | 0.225 | 0.227 | 0.215 | 0.662 | 0.896 | 0.397 |  | 0.247 | 1.03 | 1.04 | 0.813 | 0.902 | 0.937
NCI-H322M | 0.687 | 0.658 | 0.632 | 0.654 | 0.699 | 1.2 | 1.26 | 1.22 | 1.58 | 1.55 | 1.51 | 1.24 | 1.22 | 0.71 | 0.8
PC-3 [JPC-3] |  | 0.779 | 0.706 | 0.771 | 0.835 | 0.958 | 0.867 | 0.727 | 0.772 | 0.63 | 1.06 | 1.08 | 1.11 | 1.01 | 0.942
EPLC-272H | 0.347 | 0.319 | 0.388 | 0.288 | 0.406 | 1.02 | 1.21 | 0.841 | 0.645 | 0.783 | 0.829 | 0.766 | 0.753 | 0.74 | 0.716
A-427 | 0.55 | 0.548 | 0.556 | 0.535 | 0.599 | 1.16 | 0.952 | 0.892 | 0.946 | 0.475 | 1.12 | 0.947 | 1.14 | 1.02 | 1.21
